Measurements: the Kinase Knowledgebase extract (Sharma et al. 2016)

Biological target: EGFR (UniProt P00533)
Sequence (P00533 whole entry, looked up): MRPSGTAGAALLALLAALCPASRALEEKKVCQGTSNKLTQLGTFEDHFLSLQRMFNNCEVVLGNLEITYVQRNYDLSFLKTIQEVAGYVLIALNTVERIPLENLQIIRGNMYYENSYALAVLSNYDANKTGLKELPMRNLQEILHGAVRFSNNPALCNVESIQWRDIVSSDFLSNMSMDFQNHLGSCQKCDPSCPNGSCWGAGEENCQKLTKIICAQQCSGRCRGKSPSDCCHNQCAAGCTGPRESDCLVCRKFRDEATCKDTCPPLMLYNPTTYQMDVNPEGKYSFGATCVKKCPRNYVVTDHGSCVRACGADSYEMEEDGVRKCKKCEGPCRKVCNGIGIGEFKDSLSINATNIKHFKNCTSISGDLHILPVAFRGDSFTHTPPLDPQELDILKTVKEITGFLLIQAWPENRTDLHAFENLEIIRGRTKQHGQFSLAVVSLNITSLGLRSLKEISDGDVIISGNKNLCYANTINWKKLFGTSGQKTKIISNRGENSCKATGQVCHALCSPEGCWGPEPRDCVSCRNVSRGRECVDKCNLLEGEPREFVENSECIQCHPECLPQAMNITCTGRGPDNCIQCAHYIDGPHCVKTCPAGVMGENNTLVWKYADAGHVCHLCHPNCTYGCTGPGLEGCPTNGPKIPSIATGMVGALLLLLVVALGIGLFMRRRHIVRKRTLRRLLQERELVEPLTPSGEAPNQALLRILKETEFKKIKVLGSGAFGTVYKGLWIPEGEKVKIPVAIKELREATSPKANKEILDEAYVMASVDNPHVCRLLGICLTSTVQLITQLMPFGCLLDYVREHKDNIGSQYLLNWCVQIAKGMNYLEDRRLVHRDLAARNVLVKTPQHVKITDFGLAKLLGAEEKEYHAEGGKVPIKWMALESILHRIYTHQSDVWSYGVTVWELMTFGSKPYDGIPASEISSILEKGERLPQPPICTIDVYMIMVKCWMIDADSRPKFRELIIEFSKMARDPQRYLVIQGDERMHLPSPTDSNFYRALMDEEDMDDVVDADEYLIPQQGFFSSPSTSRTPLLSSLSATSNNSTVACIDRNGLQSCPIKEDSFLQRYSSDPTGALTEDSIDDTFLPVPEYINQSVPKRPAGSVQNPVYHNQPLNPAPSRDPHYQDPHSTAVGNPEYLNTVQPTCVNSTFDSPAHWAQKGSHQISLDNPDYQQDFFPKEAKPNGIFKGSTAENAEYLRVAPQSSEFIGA

| SMILES | IC50 [µM] |
| --- | --- |
| C=CC(=O)Nc1cc2c(Nc3ccc(Br)c(Cl)c3F)ncnc2cc1OCCNC(=O)CCCN(C)C | 0.028 |
| C=CC(=O)Nc1cc2c(Nc3ccc(Br)cc3F)ncnc2cc1OCCNC(=O)CCCN(C)C | 0.021 |
| C=CC(=O)NCCCNc1cc2c(Nc3ccc(Br)cc3F)ncnc2cc1OCC1CCN(C(=O)CC)CC1 | 0.056 |
| C=CC(=O)Nc1cc2c(Nc3ccc(Br)cc3F)ncnc2cc1OCC(=O)NCCN(C)C | 0.652 |
| C=CC(=O)NCCCNc1cc2c(Nc3ccc(F)c(F)c3F)ncnc2cc1OCC1CCN(C)CC1 | 0.012 |
| C=CC(=O)NCCCNc1cc2c(Nc3ccc(Br)cc3F)ncnc2cc1OCC1CCN(C(=O)C=C)CC1 | 0.068 |
| C=CC(=O)NCCCNc1cc2c(Nc3ccc(Br)cc3F)ncnc2cc1OCC1CCN(C(C)=O)CC1 | 0.035 |
| C=CC(=O)Nc1cc2c(Nc3ccc(Br)cc3F)ncnc2cc1OCCOC(=O)CC(=O)OCC | 0.246 |
| C=CC(=O)NCCCNc1cc2c(Nc3ccc(Br)cc3F)ncnc2cc1OCC1CCN(C)CC1 | 0.011 |
| C=CC(=O)Nc1cc2c(Nc3ccc(Br)cc3F)ncnc2cc1OCCOC(=O)CC(=O)O | 0.956 |

Continued by falling IC50, values first:

| IC50 [µM] | SMILES |
| --- | --- |
| 0.568 | C=CC(=O)Nc1cc2c(Nc3ccc(Br)c(F)c3F)ncnc2cc1OCCNC(=O)CCCN(C)C |
| 0.325 | C=CC(=O)Nc1cc2c(Nc3ccc(Br)cc3F)ncnc2cc1OCCNC(=O)CC(C)N(C)C (stereo not given) |
| 0.08 | C=CC(=O)NCCC(=O)Nc1cc2c(Nc3ccc(Br)cc3F)ncnc2cc1OCC1CCN(C)CC1 |
| 0.076 | C=CC(=O)NCCNc1cc2c(Nc3ccc(Br)cc3F)ncnc2cc1OCC1CCN(C)CC1 |
| 0.032 | C=CC(=O)Nc1cc2c(Nc3ccc(Br)cc3F)ncnc2cc1OCCNC(=O)CCC |
